Key:
[1] = In vitro lipophilicity by RP-TLC; format: physicochemical; details: for PC2 / PC1: PCA score on RM values; for PC1: lower value = more lipophilic; for RM / Rf / mRM / RM0 / b / lipophilicity ranking (in words): RP-TLC; for mRM: arithmetic mean of RM values; for RM0: extrapolation of RM to 0% organic modifier; for b: slope of the line RM = f(c); for lipophilicity ranking (in words): within series 5a–c
Method: The chromatographic performance of compounds 5a–c was investigated by reverse-phase thin-layer chromatography (RP-TLC). Standardized Silica gel 60 RP-18 F254S chromatographic plates (20 × 10 cm, Merck, Darmstadt, Germany) were used as the stationary phase, and an i-propanol–water mixture, in volumetric proportions ranging from 40% to 60% (v/v) i-propanol, was used as the mobile phase. The variance between two successive elution mixtures was 5%.
Solutions containing 1 mg/mL of compounds 5a–c were prepared in dimethylsulfoxide (DMSO). A volume equal to 2 μL of each sample was manually applied using chromatographic capillary micropipettes, at a distance of 10 mm from the lower side of the plates and 10 mm from their lateral sides. The gap between two successive spots was 10 mm.
The development process was carried out at room temperature using a chromatographic chamber pre-saturated for 30 min with mobile-phase vapors. The migration distance of the mobile phase was 80 mm for all concentrations used, and it was determined manually by calculating the retention factor Rf; thus, Rf = migration distance of the compound/migration distance of the mobile phase. Rf values were calculated for each tested compound at all five concentrations of the mobile phase.
The spots were visualized under UV light at a wavelength of 254 nm.
Starting from the Rf values determined by RP-TLC, a series of lipophilicity parameters was calculated. Therefore, based on the Bate-Smith and Westall equation, the logarithmic RM values were obtained:RM = log [1/Rf−1](2)
Based on the linear relationship between the RM value and the concentration of the organic solvent in the mobile phase [c], using the linear regression equation and the Soczewinski–Wachtmeister model (where b = slope of the line and c = concentration of organic modifier), the values of another lipophilicity parameter, RM0, were determined by extrapolating the RM values to 0% organic modifier:RM = RM0 + b[c](3)
The arithmetic mean of the lipophilicity parameter RM values, corresponding to a series of concentrations of the organic modifier in the mobile phase, was determined. Therefore, the mRM lipophilicity parameter was obtained.
Applying principal component analysis (PCA, XL-STAT) to the lipophilicity parameter RM, new lipophilicity parameters represented by the principal components (PCs) were obtained.
Starting from the experimentally determined Rf values, the RM logarithmic values were calculated. Consequently, the presence of minor errors in determining the Rf values can generate errors in calculating the RM values. By analyzing the principal components, the errors in estimating the RM0 values are eliminated through extrapolation, thereby providing more precise results.

[2] = system: human foreskin fibroblasts (BJ); assay: MTT cytotoxicity assay on BJ cells; format: cell-based; details: 48 h; for cytotoxicity on BJ cell line (in words) / IC50: BJ cells; for IC50: Homo sapiens, MTT
Method: (§1) Compounds 5a–c were dissolved in dimethylsulfoxide (DMSO) at an initial concentration of 10 mM, which was diluted 10 times with the characteristic medium and placed on plates at final concentrations ranging from 12.5 to 150 μM. The cells were seeded on plates of 96 wells at a density of 1 × 10^4 cells per well and incubated for 48 h. The culture medium was removed, and then 100 µL MTT (3-(4,5-dimethylthiazol-2-yl)-2,5-diphenyltetrazolium bromide) was added for 1 h. After that, it was removed, and 150 µL of pure dimethylsulfoxide (DMSO) was added. The samples were read using an ELISA Reader (BioTek, Winooski, VT, USA) at 570 nm. […] All determinations were made in triplicate.
(§2) The half-maximal inhibitory concentration (IC50) values were calculated to evaluate the potency of compounds 5a–c by fitting the investigational data with a 4-parameter logistic curve to obtain the dose-effect curves. The experimental IC50 results are expressed as mean values ± standard deviation (SD) of the three biological replicates.
(§3) Two-way analysis of variance (ANOVA) with a post hoc Bonferroni test was used to statistically examine the relative cell viability (%), compared to the negative control (NC), which was 100%. Data were analyzed using the […] software (GraphPad Prism 8.0.2. Software, La Jolla, CA, USA). In terms of statistical analysis, the results were considered different at values of p < 0.05 or p < 0.001.

[3] = In vitro lipophilicity by RP-HPLC; format: physicochemical; details: logarithm of the capacity factor
Method: The chromatographic behavior of compounds 5a–c was also examined by high-performance liquid chromatography coupled with mass spectrometry (HPLC-MS). The analyses were conducted using an Agilent 1100 series HPLC system (binary pump, autosampler, thermostat, UV detector, Agilent Technologies, USA) coupled to a Bruker Ion Trap SL system (Bruker Daltonics GmbH). Chromatographic separation was completed using a Zorbax SB-C18 column (50 mm × 2.1 mm i.d., 3.5 μm, Agilent Technologies). The mobile phase consisted of a mixture of water with 0.1% (v/v) acetic acid and acetonitrile. The elution gradient started at 15% acetonitrile and increased to 95% within 5 min. The flow rate was 0.6 mL/min, and the thermostat was set at 45 °C. UV detection was performed at 242 nm. Based on the retention times obtained, the capacity factor k was calculated using formula […], where tR = retention time of the compound and t0 = retention time of the solvent:k = (tR − t0)/t0,(4)
The logarithm of the capacity factor (log k) was used to estimate the lipophilicity of the compounds [71]. The RP-HPLC method has multiple advantages, including low sample requirements, good accuracy of determinations, fast analysis, and high reproducibility.

[4] = system: human hepatocellular carcinoma (HepG2); assay: MTT cytotoxicity assay on HepG2 cells; format: cell-based; details: for IC50: Homo sapiens, HepG2 cells, MTT; for IC50 / Selectivity Index (SI): 48 h; for Selectivity Index (SI): SI = IC50 BJ/IC50 HepG2
Method: as §1, §2, §3
The selectivity index (SI) was used as a parameter to determine how many times more cytotoxic the investigated compounds were by exposing them to normal and cancer cells. It was calculated using the IC50 value ratio between the BJ cell line and the HepG2 cell line, both obtained from ATCC (Manassas, VA, USA). Results that are greater than 2 are considered suitable, as reported in the literature.

[5] = Isopropanol–Water 40:60 (v:v %)
[6] = Isopropanol–Water 45:55 (v:v %)
[7] = Isopropanol–Water 50:50 (v:v %)
[8] = Isopropanol–Water 55:45 (v:v %)
[9] = Isopropanol–Water 60:40 (v:v %)

PC2 [1]	PC1 [1]	RM [1, 5]	Rf [1, 5]	RM [1, 6]	Rf [1, 6]	RM [1, 7]	Rf [1, 7]	RM [1, 8]	Rf [1, 8]	RM [1, 9]	Rf [1, 9]	mRM [1]	RM0 [1]	b [1]	log k [3]	lipophilicity ranking (in words) [1]	SMILES	cytotoxicity on BJ cell line (in words) [2]	IC50 [2] [µM]	IC50 [4] [µM]	other results
−0.09	0.64	0.12	0.43	0.03	0.48	−0.08	0.55	−0.28	0.66	−0.60	0.8	−0.16	−0.03	1.60	0.93		C=CCn1c(SCC(=O)c2ccc(O)c(C(N)=O)c2)nc2ccccc2c1=O [5a, 5-(2-((3-allyl-4-oxo-3,4-dihydroquinazolin-2-yl)thio)acetyl)-2-hydroxybenzamide]	less cytotoxic or non-cytotoxic	> 100	> 50	
0.41	−2.01	0.36	0.30	0.23	0.37	0.06	0.46	−0.14	0.58	−0.41	0.72	0.02	−0.03	1.95	0.99	The most lipophilic compound	NC(=O)c1cc(C(=O)CSc2nc3ccccc3c(=O)n2Cc2ccccc2)ccc1O [5b, 5-(2-((3-benzyl-4-oxo-3,4-dihydroquinazolin-2-yl)thio)acetyl)-2-hydroxybenzamide]	moderate cytotoxicity	26.6 ± 1.07	24.87 ± 0.19	reduction of viability values ([2]; BJ, concentrations higher than 50 and 100 µM): more than 35%; decrease of cell viability ([2]; BJ, concentrations over 25 µM): more than 50%; Selectivity Index (SI) [4]: 1.06
−0.31	1.37	0.05	0.47	−0.01	0.51	−0.14	0.58	−0.32	0.68	−0.62	0.81	−0.21	−0.03	1.46	0.91	The least lipophilic compound	CCn1c(SCC(=O)c2ccc(O)c(C(N)=O)c2)nc2ccccc2c1=O [5c, 5-(2-((3-ethyl-4-oxo-3,4-dihydroquinazolin-2-yl)thio)acetyl)-2-hydroxybenzamide]	moderate cytotoxicity	34.5 ± 1.09	25.46 ± 0.2	relative cell viability result (in words) ([2]; BJ, over 37.5 µM): significantly unfavorable; Selectivity Index (SI) [4]: 1.35; reduction in cell viability (in words) ([4]; HepG2, 48 h, over 37.5 µM): important reduction in cell viability
																	CNC(=O)c1cc(Oc2ccc(NC(=O)Nc3ccc(Cl)c(C(F)(F)F)c3)cc2)ccn1 [Sorafenib, reference compound]		5.11 ± 0.16	4.87 ± 0.19	cell viability level ([4]; HepG2, 48 h, concentrations exceeding 5 µM): below 50%
